pKd: −log10 of the molar value. “Also recorded” adds a separate entry of the source.
Assays:
HDM2 M62A = biological target: T1, HDM2 M62A (Homo sapiens, UniProt Q00987, M62A); experiment: p53 reporter assay in p53/HDM2-null DKO cells, HDM2 M62A; type: cell-based; settings: 20 μM
T1 construct: expressed in transfected cells; host or cells: DKO mouse embryonic fibroblasts (A12); HCT116 p53+/+ (A28)
Experimental: (§1) DKO (p53/HDM2 null) cells were maintained in Dulbecco's modified Eagle's medium (DMEM) with 10% foetal calf serum (FCS) and 1% penicillin/streptomycin. The cells were seeded at 1.0×10^5 cells/well in 6-well plates, 24 hours prior to transfection. […] In all cases, the total amount of plasmid DNA transfected per well was equilibrated by addition of the parental vector pcDNA3.1a(+).
(§2) DKO cells were harvested 24 hours after transfection and […] activities were assessed using the Dual-light System (Applied Biosystems) according to the manufacturer's protocol. The β-galactosidase activity was normalized with luciferase activity for each sample. To check for expression levels of relevant proteins via Western blot, 2.5 μg of the cell lysates were subjected to electrophoresis, transferred to nitrocellulose membranes and probed for p53 with horseradish peroxidise conjugated DO1 antibody, for HDM2 and actin with anti-HA antibody and AC15 antibody respectively followed by rabbit anti-mouse.
(§3) Mouse embryonic fibroblast p53/Mdm2 double-knockout (DKO) cells (a kind gift from Guillermina Lozano) and H1299 p53^−/− cells were maintained in Dulbecco's modified Eagle's medium (DMEM) with 10% (v/v) foetal calf serum (FCS) and 1% (v/v) penicillin/streptomycin. The cells were seeded at 1.0×10^5 cells/well in 6-well plates, 24 hours prior to transfection. […]

wild-type HDM2 = biological target: T2, wild-type HDM2 (Homo sapiens, UniProt Q00987); experiment: p53 reporter assay in p53/HDM2-null DKO cells, wild-type HDM2; type: cell-based; settings: 20 μM
T2 construct: expressed in transfected cells; host or cells: H1299 p53-/- cells (A5); mouse embryonic fibroblast p53/Mdm2 double-knockout (DKO) cells (A7)
Experimental: as §1, §2, §3

[1] = biological target: T3, HDM2 M62A-p53 interaction (Homo sapiens, UniProt Q00987, M62A); experiment: In vitro pull-down (co-immunoprecipitation, Western blot), HDM2 M62A; type: biochemical; settings: 10 μM
T3 construct: made in house; host or cells: cell-free in vitro transcription-translation (IVT)
Experimental: (§4) Protein G beads were incubated with anti-HA (1 μg per 10 μL beads) for 1 hour in PEST-3% BSA and subsequently washed twice in PBST-0.1% BSA. IVT-expressed protein was incubated with the beads on a rotator for 30 mins. […] IVT-containing secondary protein was added to the mixture and incubation allowed for 1 hour. Beads were finally washed thrice in PBST-0.1% BSA and thrice with PBS, and bound proteins eluted by resuspension in 20 μL SDS-PAGE loading buffer and incubation at 95° C. for 5 minutes. Where required, blank IVT extract (no template DNA added) was used as control. The eluates were subjected to electrophoresis, transferred to nitrocellulose membranes and probed for p53 with horseradish peroxidise conjugated DO1 antibody (Santa Cruz) or for HDM2 with anti-HA antibody followed by rabbit anti-mouse (Dakocytomation).
(§5) Protein G beads (Invitrogen) were incubated with anti-HA (1 μg per 10 μL beads) for 1 hour in PBST-3% BSA and subsequently washed twice in PBST-0.1% BSA. IVT expressed wild-type or mutant HDM2 was incubated with the beads on a rotator for 30 mins. […] IVT-expressed p53 was added to the mixture and incubation allowed for 1 hour. Beads were finally washed thrice in PBST-0.1% BSA and thrice with PBS, and bound proteins eluted by resuspension in 20 μL SDS-PAGE loading buffer and incubation at 95° C. for 5 minutes. […]

[2] = biological target: T4, wild-type HDM2-p53 interaction (Homo sapiens, UniProt Q00987); experiment: In vitro pull-down (co-immunoprecipitation, Western blot), wild-type HDM2; type: biochemical; settings: 10 μM
T4 construct: made in house; host or cells: cell-free in vitro transcription-translation (IVT)
Experimental: as §4, §5

[3] = biological target: T5, HDM2 Q24R-p53 interaction (Homo sapiens, UniProt Q00987, Q24R); experiment: In vitro pull-down (co-immunoprecipitation, Western blot), HDM2 Q24R; type: biochemical; settings: 10 μM
T5 construct: made in house; host or cells: cell-free in vitro transcription-translation (IVT)
Experimental: as §4, §5

[4] = biological target: purified HDM2 (amino acids 1-125) M62A (human) (UniProt Q00987); experiment: competitive fluorescence anisotropy against FAM-12-1 peptide, apparent Kd
[5] = biological target: purified HDM2 (amino acids 1-125), wild-type (human) (UniProt Q00987); experiment: as above
[6] = biological target: purified HDM2 (amino acids 1-125) P20L (human) (UniProt Q00987); experiment: as above
[7] = biological target: purified HDM2 (amino acids 1-125) Q24R (human) (UniProt Q00987); experiment: as above
purified HDM2 (amino acids 1-125) Q24R (human), sequence (Q00987 1-125 Q24R limits assumed): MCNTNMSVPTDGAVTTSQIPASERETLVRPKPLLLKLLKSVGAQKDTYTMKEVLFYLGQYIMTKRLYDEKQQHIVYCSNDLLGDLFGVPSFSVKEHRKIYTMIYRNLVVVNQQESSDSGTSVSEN

T5 sequence (Q00987 whole entry Q24R): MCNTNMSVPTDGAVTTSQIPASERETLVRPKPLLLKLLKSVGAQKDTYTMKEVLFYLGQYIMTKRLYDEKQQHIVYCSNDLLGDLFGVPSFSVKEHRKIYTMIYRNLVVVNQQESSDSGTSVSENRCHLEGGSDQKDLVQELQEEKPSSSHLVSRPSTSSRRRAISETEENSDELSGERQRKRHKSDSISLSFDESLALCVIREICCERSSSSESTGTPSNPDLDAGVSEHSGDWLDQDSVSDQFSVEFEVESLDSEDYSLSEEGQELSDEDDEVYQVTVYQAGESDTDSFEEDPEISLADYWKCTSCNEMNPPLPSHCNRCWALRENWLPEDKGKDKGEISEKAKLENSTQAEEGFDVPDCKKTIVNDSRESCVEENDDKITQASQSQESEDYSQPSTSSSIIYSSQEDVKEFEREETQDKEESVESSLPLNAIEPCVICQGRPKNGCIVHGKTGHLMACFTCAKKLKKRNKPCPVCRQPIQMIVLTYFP
T3 sequence (Q00987 whole entry M62A): as the sequence (Q00987 whole entry Q24R) above, with R24Q, M62A counted along it
purified HDM2 (amino acids 1-125) M62A (human), sequence (Q00987 1-125 M62A limits assumed): as the sequence (Q00987 1-125 Q24R limits assumed) above, with R24Q, M62A counted along it
purified HDM2 (amino acids 1-125), wild-type (human), sequence (Q00987 1-125 limits assumed): as the sequence (Q00987 1-125 Q24R limits assumed) above, with R24Q counted along it
T1 sequence (Q00987 whole entry M62A): as the sequence (Q00987 whole entry Q24R) above, with R24Q, M62A counted along it
purified HDM2 (amino acids 1-125) P20L (human), sequence (Q00987 1-125 P20L limits assumed): as the sequence (Q00987 1-125 Q24R limits assumed) above, with P20L, R24Q counted along it
T4 sequence (Q00987 whole entry): as the sequence (Q00987 whole entry Q24R) above, with R24Q counted along it
T2 sequence (Q00987 whole entry): as the sequence (Q00987 whole entry Q24R) above, with R24Q counted along it

Molecule | p53 activity restored, of that seen in absence of HDM2 co-transfection (HDM2 M62A) | p53 activity restored, of that seen in absence of HDM2 co-transfection (wild-type HDM2) | effect on p53 binding to immobilised HDM2 (Western blot) [1] | effect on p53 binding to immobilised HDM2 (Western blot) [2] | effect on p53 binding to immobilised HDM2 (Western blot) [3] | pKd [4] | pKd [5] | pKd [6] | pKd [7]
CC(=O)N[C@H](C(=O)N[C@@H](CO)C(=O)N[C@@H](Cc1ccccc1)C(=O)N[C@]1(C)CCCCCCC=CCCC[C@@](C)(C(N)=O)NC(=O)[C@H](CC(C)C)NC(=O)[C@H](CC(C)C)NC(=O)[C@H](C)NC(=O)[C@H](Cc2c[nH]c3cc(Cl)ccc23)NC(=O)[C@H](Cc2ccc(O)cc2)NC(=O)[C@H](CCC(=O)O)NC1=O)[C@@H](C)O [MO11] | 47% | 51% | showed inhibition of p53 binding; also recorded: abrogate the mutant HDM2-p53 interaction as efficiently as Nutlin inhibits the wildtype HDM2-p53 interaction | showed inhibition of p53 binding | showed inhibition of p53 binding; also recorded: abrogate the mutant HDM2-p53 interaction as efficiently as Nutlin inhibits the wildtype HDM2-p53 interaction |  |  |  | 
p53 peptide |  |  |  |  |  | 7.53 | 7.86 | 7.76 | 7.98

Reference: patent US20150276755A1, “METHODS FOR DETERMINING RESISTANCE AGAINST MOLECULES TARGETING PROTEINS” (AGENCY FOR SCIENCE, TECHNOLOGY AND RESEARCH, priority 2012, published 2015)
